Results on 29 compounds are retold here after patent US11872236B2, “Pharmacological agents for treating ocular diseases” (CALASIA PHARMACEUTICALS, INC., priority 2018, dated 2024).

Values after ≈ are worked out from the molar mass of the structure shown. Read-outs that look alike come from different tables or passages of the source.

Data set [1] deals with TTR (Homo sapiens, UniProt P02766). Conditions: Sant'Anna, R. et al. (2016); cited from earlier work.
The target of data set [2] is T1, alpha-A crystalline (Homo sapiens, UniProt P02489).
T1 sequence (P02489 1-173): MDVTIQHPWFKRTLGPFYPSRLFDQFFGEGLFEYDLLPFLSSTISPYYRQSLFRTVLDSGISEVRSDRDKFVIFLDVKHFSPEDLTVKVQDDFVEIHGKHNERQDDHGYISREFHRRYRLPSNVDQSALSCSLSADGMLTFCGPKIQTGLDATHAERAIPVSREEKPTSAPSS
The experiment in a line: Ca+2 and UVC induced aggregation of alpha-A crystalline (absorbance screen).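 For all read-outs here: recombinant human alpha-A crystallin (500 µg/ml) preincubated 30 min with compound, then UV-induced aggregation tracked by absorbance at time points from 0 to 120 min.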 Conditions: for inhibition at 200 µM: Ca+2 and UVC induced aggregation of alpha-A crystalline, read-out: Percent protection (at 200 μM); for EC50: preventing Ca+2 and UVC induced aggregation of alpha-A crystalline. In kind it is biochemical.

Data set [3] concerns SRA 01/04 HLE cells. The experiment in a line: Cell-based UV protection, viability by Alamar blue.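 Note: cells pretreated with compound at a range of concentrations before UV irradiation, viability read 24 h after exposure.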 Conditions: Table 5. Set-up: species or system human.
Data set [4] can be described thus: Solubility with FDA approved excipients. The data set is classed as physicochemical. The protocol:
Solubility: The solubility of CAP1160 and CAP4196 was tested with different FDA approved excipients such as cyclodextrin, PEG-b-PCL, Kolliphor-EL, Kolliphor-40, sorbitol, propelyne gycol, sodium phosphate, etc. […] This makes the formulation safe for topical use (see Table 6).

The subject of data set [5] is human lens epithelial (HLE) cells. The experiment in a line: Cell-based heat protection, viability by Alamar blue. Details: Cell Heat % protection: concentration or dose not given beside the values. Conditions: for Cell-based [Heat] (max % net protection): Table 5; for Cell Heat % protection: Table 8. How it is done: Alamar blue was used for assessing viability. Mean±SEM of the measurements are shown.
Cell-based using assays using human lens epithelial cell lines SRA 01/04 and B3 were also performed. The cells were exposed to UV or heat and cell viability assessed 24 hours post-exposure by Alamar blue staining. In another experiment, SRA 01/04 cells were pre-incubated with varying concentrations of compounds two hours prior to UV exposure. Relative protection was measured as percent viability compared to vehicle control 24 hours following UV exposure. Mean±SEM of the measurements are shown.

Data set [6] deals with porcine eye lens. The experiment in a line: Ex vivo eye lens exposed to UVC radiation, cataract scoring. The following applies: Table 8; printed as a percentage. The protocol:
The top row of the figure corresponds to lenses that were not exposed to UVC but contained same percent of DMSO as those that were exposed to UVC. The lenses were monitored and imaged for three days following the exposure to UVC. No drug was added to the lenses post UVC exposure.

In data set [7] the test system is New Zealand white rabbits. The experiment in a line: Ocular safety / MTD, repeated dose for 7 days. The following applies: for Mortality and Morbidity: 50 μL × 4 times a day in each eye, male. In kind it is in vivo. The protocol: Prodrug CAP4196 is well-tolerated up to 10% concentration in New Zealand white rabbits. Initial maximum tolerated dose studies (MTD) help identify observable signs of toxicity and provide a rationale for setting dose levels in later definitive studies. Therefore, the MTD of CAP4196 was evaluated in New Zealand white rabbits. Four animals per group were dosed with increasing concentrations (0.25, 2.5, 8 and 10%) of CAP4196 at 50 μl volume q.i.d. dosing at 2 hrs interval. Following the dosing, the animals were evaluated for mortality and morbidity, ophthalmological examination, body weight, and clinical pathology before start of dosing then on dosing days 2, 4, and 6 prior to first dose instillation and on day 7, one hour after last dose instillation.

On to `Cc1ccc(C(=O)c2cc(O)c(O)c([N+](=O)[O-])c2)cc1` [CAP1160, Tolcapone], for which, in data set [1], the TTR aggregation inhibition result is reported as “potent TTR aggregation inhibitor”. Also, in data set [2], the inhibition at 200 µM came to 65% and the midpoint of the response, the EC50, lay at 63.5 µM. The “Cell-based [UV] (max % net protection)” value in data set [3] turned out to be 68%. Moreover, in data set [4], the “With Kolliphor 40 (1:1) In water” value was determined as 1, the “With PEG-b-PCL (1:1) mg/ml in water” value is 1 mg/mL and the improvement in solubility is on record as 10 fold. Besides, the solubility in data set [4] (aqueous with cosolvent or surfactant or cyclodextrin, Solubility in water with (2-hydroxypropyl)-beta cyclodextrin mg/ml (1:1)) turned out to be 2 mg/mL (≈ 7.32 mM). Besides, the solubility in data set [4] (aqueous with cosolvent or surfactant or cyclodextrin, solubility) worked out at 1.5 mg/mL (≈ 5.49 mM). Moreover, the solubility in data set [4] (water, Solubility in water mg/ml) turned out to be 0.1 mg/mL (≈ 0.366 mM). Besides, the “Cell-based [Heat] (max % net protection)” value in data set [5] is reported as 23%.

Take `O=C(c1ccccc1)c1ccc(O)c(O)c1` [CAP1347]: in data set [2], the inhibition at 200 µM turned out to be 13% and the EC50 was 115 µM. Further, the “Cell-based [UV] (max % net protection)” value in data set [3] was 28%. In addition, the “Cell-based [Heat] (max % net protection)” value in data set [5] worked out at 8%.

In the case of `O=C(c1cc(O)c(O)c([N+](=O)[O-])c1)c1ccccc1F` [CAP3089], in data set [2], the inhibition at 200 µM was determined as 56% and the EC50 is 362 µM. In addition, in data set [3], the “Cell-based [UV] (max % net protection)” value is reported as 31%. The “Cell-based [Heat] (max % net protection)” value in data set [5] was determined as 0%.

For the compound `Nc1ccc(Cl)cc1C(=O)c1ccccc1Cl` [CAP4126], the “Cell-based [UV] (max % net protection)” value in data set [3] was 0%.

In the case of `O=C(c1ccccc1)c1ccccc1` [CAP4127], the “Cell-based [UV] (max % net protection)” value in data set [3] was 55%. In addition, the “Cell-based [Heat] (max % net protection)” value in data set [5] is recorded as 9%.

Consider `Nc1ccc(C(=O)c2ccccc2)cc1` [CAP4128], for which, in data set [3], the “Cell-based [UV] (max % net protection)” value is 23%.

On to `Nc1ccc(C(=O)c2ccccc2)cc1N` [CAP4129], for which, in data set [3], the “Cell-based [UV] (max % net protection)” value was 37%. Also, in data set [5], the “Cell-based [Heat] (max % net protection)” value is 0%.

As to `COc1ccc(C(=O)c2ccccc2)cc1` [CAP4130], the “Cell-based [UV] (max % net protection)” value in data set [3] is 55%. Also, the “Cell-based [Heat] (max % net protection)” value in data set [5] is listed as 42%.

On to `O=C(c1ccccc1)c1ccc([N+](=O)[O-])cc1` [CAP4131], for which, in data set [3], the “Cell-based [UV] (max % net protection)” value was 0%.

For the compound `COc1ccc(C(=O)c2ccccc2)cc1OC` [CAP4132], the “Cell-based [UV] (max % net protection)” value in data set [3] worked out at 39%. Also, in data set [5], the “Cell-based [Heat] (max % net protection)” value was found to be 0%.

Turning to `O=C(c1ccccc1)c1ccc(O)c(O)c1O` [CAP4133], the “Cell-based [UV] (max % net protection)” value in data set [3] is 22%. Also, the “Cell-based [Heat] (max % net protection)” value in data set [5] was 18%.

For `COc1cc(O)c(C(=O)c2ccccc2)cc1S(=O)(=O)[O-].[Na+]` [CAP4135], in data set [3], the “Cell-based [UV] (max % net protection)” value was 75%. The “Cell-based [Heat] (max % net protection)” value in data set [5] came to 4%.

Regarding `COc1cc(O)c(C(=O)c2cc(S(=O)(=O)[O-])c(OC)cc2O)cc1S(=O)(=O)[O-].[Na+].[Na+]` [CAP4136], the “Cell-based [UV] (max % net protection)” value in data set [3] amounted to 70%. Also, the “Cell-based [Heat] (max % net protection)” value in data set [5] was 5%.

`Cc1ccc(C(=O)c2ccccc2)c(N)c1` [CAP4152]: the “Cell-based [UV] (max % net protection)” value in data set [3] is 17%. Further, the “Cell-based [Heat] (max % net protection)” value in data set [5] was found to be 0%.

For the compound `O=C(O)c1ccc(C(=O)c2ccc(C(=O)O)cc2)cc1` [CAP4160], the “Cell-based [UV] (max % net protection)” value in data set [3] is on record as 82%. The “Cell-based [Heat] (max % net protection)” value in data set [5] worked out at 0%.

As to `O=C(c1cccc(F)c1)c1cccc(F)c1` [CAP4161], the “Cell-based [UV] (max % net protection)” value in data set [3] turned out to be 38%. Further, in data set [5], the “Cell-based [Heat] (max % net protection)” value is 8%.

On to `COc1cc(O)c(C(=O)c2ccccc2)cc1S(=O)(=O)O` [CAP4162], for which the “Cell-based [UV] (max % net protection)” value in data set [3] was 60%. In addition, the “Cell-based [Heat] (max % net protection)” value in data set [5] was determined as 3%.

On to `O=C(O)c1ccc(C(=O)c2ccccc2)cc1` [CAP4172], for which the “Cell-based [UV] (max % net protection)” value in data set [3] was 67%. For the same compound, the “Cell-based [Heat] (max % net protection)” value in data set [5] is 9%.

`O=C(O)c1ccc(C(=O)c2ccccc2C(=O)O)cc1` [CAP4173]: the “Cell-based [UV] (max % net protection)” value in data set [3] is on record as 61%. The “Cell-based [Heat] (max % net protection)” value in data set [5] amounted to 0%.

As to `CNc1ccc2c(O)cc(S(=O)(=O)O)cc2c1` [CAP4184], the Ex-vivo in data set [6] is listed as 15%. In data set [5], the “Cell Heat % protection” value is recorded as 4%.

In the case of `Nc1c(O)cc(S(=O)(=O)O)c2ccccc12` [CAP4188], the “Cell Heat % protection” value in data set [5] is recorded as 2%.

Consider `Nc1ccc2c(O)cc(S(=O)(=O)O)cc2c1` [CAP4190], for which the “Cell Heat % protection” value in data set [5] amounted to 15%.

For `Cc1ccc(C(=O)c2cc(OP(=O)([O-])[O-])c(O)c([N+](=O)[O-])c2)cc1.[Na+].[Na+]` [CAP4196, Sodium 2-hydroxy-5-(4-methylbenzoyl)-3-nitrophenyl phosphate], the local reactions result in data set [7] (10% w/v, 50 μL, 4 times a day) is “only few temporary local reactions like excessive rubbing of eyes and redness”. In data set [7] (10% w/v, 50 μL, 4 times a day), the systemic toxicity entry is “did not produced any systemic toxicity”. In addition, the “MTD (highest dose concentration)” value in data set [7] (50 μL, 4 times a day, 2 hours interval, 7 days) is reported as 10%. The “Mortality and Morbidity” value in data set [7] (ophthalmic formulation 0.25% w/v), in data set [7] (ophthalmic formulation 4% w/v), in data set [7] (ophthalmic formulation 8% w/v) and in data set [7] (ophthalmic formulation 10% w/v) was 0 each time. The well-tolerated concentration result in data set [7] (topical ocular, repeated dose 7 days) is on record as “up to 10%”. Besides, in data set [3], the “Cell-based [UV] (max % net protection)” value amounted to 63%. Moreover, in data set [4] (100 mg/ml, only water as solvent), the “pH of the formulation” value is on record as 6.65. Also, the solubility was 100 mg/mL in data set [4] (aqueous with cosolvent or surfactant or cyclodextrin, water with (2-hydroxypropyl)-beta cyclodextrin (1:1), read-out: Solubility in water with (2-hydroxypropyl)-beta cyclodextrin mg/ml (1:1)); 100 mg/mL in data set [4] (pH 6.65, only water as solvent, read-out: solubility); 100 mg/mL in data set [4] (water, read-out: Solubility in water). Moreover, in data set [4] (phosphate prodrug, only water as solvent), the improvement in solubility result was “greater than 660 fold”. In addition, in data set [5], the “Cell-based [Heat] (max % net protection)” value is 38%.

Turning to `COc1ccc(C(=O)c2ccc([N+](=O)[O-])cc2)cc1S(=O)(=O)NCc1ccccc1` [CAP4256], the “Cell-based [UV] (max % net protection)” value in data set [3] was 7%.

With `COc1ccc(C(=O)c2ccc([N+](=O)[O-])cc2)cc1S(=O)(=O)NC1CCCCC1` [CAP4257], the “Cell-based [UV] (max % net protection)” value in data set [3] worked out at 19%.

`CCc1onc2ccc(C(=O)c3ccccc3)cc12` [CAP4258]: in data set [3], the “Cell-based [UV] (max % net protection)” value is given as 36%.

As to `O=C(c1cccc([N+](=O)[O-])c1)c1ccc2c(c1)C(=O)OC2=O` [CAP4265], the “Cell-based [UV] (max % net protection)” value in data set [3] turned out to be 129%. For the same compound, the “Cell-based [Heat] (max % net protection)” value in data set [5] is 17%.

`O=C(c1ccccc1)c1ccccc1S(=O)(=O)c1ccccc1` [CAP4279]: the “Cell-based [UV] (max % net protection)” value in data set [3] amounted to 5%. Moreover, in data set [5], the “Cell-based [Heat] (max % net protection)” value was 0%.

Turning to `NC(=O)Cc1cccc(C(=O)c2ccccc2)c1N` [CAP4281], the “Cell-based [UV] (max % net protection)” value in data set [3] is 38%. In addition, the “Cell-based [Heat] (max % net protection)” value in data set [5] turned out to be 8%.
